The record followed here is patent publication US20040106626A1, “6-Membered unsaturated heterocyclic compounds useful for selective inhibition of the coagulation cascade” (Pharmacia Corporation, priority 2001, published 2004).

pIC50: −log10 of the molar value. Where a name gives a salt, the structure may show the parent alone. Where only a bound is given, the exact number is not on record here.

Holding throughout (assay type): biochemical
The target in experiment [1] is T1, recombinant soluble tissue factor and recombinant human factor VIIa (TF-VIIa) (Homo sapiens, UniProt P08709).
T1 construct: conversion of coagulation factor VII to VIIa by factor Xa; purchased American Diagnostica, Greenwich CT; host or cells: soluble TF made in house in E. coli
Briefly: TF-VIIa assay (chromogenic substrate hydrolysis). Conditions: reported only as less than or greater than 0.1 uM. A digest of the protocol:
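Chromogenic read at OD405, compared with control for percent inhibition. Substrate N-methylsulfonyl-D-phe-gly-arg-p-nitroaniline at 0.4 mM is cleaved by recombinant human VIIa (2 nM) complexed with soluble TF (100 nM). Buffer: pH 8.0 Tris-HCl 50 mM, CaCl2 5 mM, NaCl 100 mM, BSA 0.1%.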

Experiment [2] has as its system Normal human pooled plasma. In words: Prothrombin time (PT) clotting assay. Conditions: concentration at which prothrombin time is prolonged by 2x normal, reported as less than or greater than 50 uM. In outline: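 Normal human pooled plasma incubated with 100 uM compound or saline, then thromboplastin (human tissue factor) added and clotting time recorded in a coagulation machine. Compounds exceeding 3× normal PT (11.0 s) are titrated to find the concentration doubling PT.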

Experiment [3] has as its target T2, Human factor Xa (Homo sapiens, UniProt P00742).
T2 construct: purchased Enzyme Research Laboratories, South Bend Ind
Briefly: Xa assay (chromogenic substrate S-2765). Conditions: reported only as less than or greater than 30 uM; read-out: Factor Xa (II) IC50. A digest of the protocol:
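Chromogenic readout: S-2765 hydrolysis (0.15 mM) by 0.3 nM human FXa was monitored at 405 nm after 60 min at room temperature, with a time-zero background read. Buffer: 50 mM Tris-HCl, pH 8.0, 100 mM NaCl, 0.1% BSA. Inhibition is relative to buffer-only controls.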

Experiment [4] deals with T3, Human thrombin (Homo sapiens, UniProt P00734).
T3 construct: converts prothrombin (II) to thrombin (IIa); purchased Calbiochem, La Jolla, Calif
Briefly: Thrombin assay (chromogenic substrate). Conditions: reported only as less than or greater than 30 uM; read-out: Thrombin (II) IC50. In outline:
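Percent inhibition derived by comparing OD405 nm of compound-treated and control samples. Thrombin cleavage of a p-nitroanilide chromogenic substrate provides the signal.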

T2 sequence (P00742 235-488 limits assumed): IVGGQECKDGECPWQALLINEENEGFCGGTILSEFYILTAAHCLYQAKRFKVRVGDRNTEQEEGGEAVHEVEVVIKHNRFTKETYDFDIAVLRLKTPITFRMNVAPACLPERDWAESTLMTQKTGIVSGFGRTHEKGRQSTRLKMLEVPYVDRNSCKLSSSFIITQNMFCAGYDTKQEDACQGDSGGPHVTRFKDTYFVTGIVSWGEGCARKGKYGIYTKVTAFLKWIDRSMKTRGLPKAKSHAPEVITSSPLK
T2 sequence (P00742 41-179 limits assumed): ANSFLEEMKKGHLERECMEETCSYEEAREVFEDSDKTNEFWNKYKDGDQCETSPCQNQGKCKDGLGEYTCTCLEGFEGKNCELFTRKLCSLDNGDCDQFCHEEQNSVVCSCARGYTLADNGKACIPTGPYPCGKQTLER
T1 sequence (P08709 213-466 limits assumed): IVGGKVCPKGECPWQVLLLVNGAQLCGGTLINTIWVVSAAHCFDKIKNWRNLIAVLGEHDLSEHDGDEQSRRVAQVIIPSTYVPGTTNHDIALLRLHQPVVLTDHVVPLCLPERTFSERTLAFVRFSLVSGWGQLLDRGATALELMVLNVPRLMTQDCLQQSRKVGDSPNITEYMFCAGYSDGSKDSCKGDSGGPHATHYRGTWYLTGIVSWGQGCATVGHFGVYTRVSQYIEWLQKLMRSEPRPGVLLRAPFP
T1 sequence (P08709 61-212 limits assumed): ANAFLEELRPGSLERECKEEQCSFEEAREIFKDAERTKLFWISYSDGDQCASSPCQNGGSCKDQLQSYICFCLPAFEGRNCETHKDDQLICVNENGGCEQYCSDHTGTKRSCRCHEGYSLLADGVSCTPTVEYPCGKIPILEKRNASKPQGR
T1 sequence (P13726 33-251 partner limits assumed): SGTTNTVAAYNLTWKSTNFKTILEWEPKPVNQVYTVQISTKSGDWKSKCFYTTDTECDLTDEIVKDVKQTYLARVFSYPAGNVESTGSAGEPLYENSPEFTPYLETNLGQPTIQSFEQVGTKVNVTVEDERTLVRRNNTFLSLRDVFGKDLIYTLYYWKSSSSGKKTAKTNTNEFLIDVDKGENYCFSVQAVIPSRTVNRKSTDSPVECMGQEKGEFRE

What is called pIC50 is the IC50 on a negative log10 scale, so that one unit is a factor of ten. For `CC(C)COc1cc(N)cc(-c2cnc(NC(C)C)c(=O)n2CC(=O)NCc2ccc(C(=N)N)cc2)c1` [Example 64, N-{4-[amino(imino)methyl]benzyl}-2-[6-(3-amino-5-isobutoxyphenyl)-3-(isopropylamino)-2-oxopyrazin-1 (2H)-yl]acetamide], the results for the pIC50 in experiment [1], in experiment [3] and in experiment [4] were > 7.00, < 4.52 and < 4.52, respectively. Besides, the “PT (Prothrombin time) 2xPT” value in experiment [2] was <50.0 µM.

In the case of `CC(C)Nc1ncc(-c2cc(N)cc(C(=O)N[C@@H](C)C3CCCCC3)c2)n(CC(=O)NCc2ccc(C(=N)N)cc2)c1=O.O=C(O)C(F)(F)F` [Example 82], the pIC50 in experiment [1] is > 7.00; in experiment [3], < 4.52; in experiment [4] it was > 4.52. Also, the “PT (Prothrombin time) 2xPT” value in experiment [2] was <50.0 µM.

As to `CCC(CC)CS(=O)(=O)c1cc(N)cc(-c2cnc(NC(C)C)c(=O)n2CC(=O)NCc2ccc(C(=N)N)cc2)c1.O=C(O)C(F)(F)F.O=C(O)C(F)(F)F` [Example 229], the pIC50 is > 7.00 in experiment [1], < 4.52 in experiment [3] and < 4.52 in experiment [4]. Further, the “PT (Prothrombin time) 2xPT” value in experiment [2] was <50.0 µM.

For the molecule `CCCCS(=O)(=O)c1cc(N)cc(-c2cnc(NC(C)C)c(=O)n2CC(=O)NCc2ccc(C(=N)N)cc2)c1.O=C(O)C(F)(F)F.O=C(O)C(F)(F)F` [Example 230], the pIC50 in experiment [1] was > 7.00; in experiment [3], < 4.52; in experiment [4], < 4.52. Further, the “PT (Prothrombin time) 2xPT” value in experiment [2] was <50.0 µM.

`CC(C)Nc1ncc(-c2cc(N)cc(NCCc3ccccc3)c2)n(CC(=O)NCc2ccc(C(=N)N)cc2)c1=O` [Example 110, N-{4-[amino(imino)methyl]benzyl}-2-[6-{3-amino-5-[(2-phenylethyl)amino]phenyl}-3-(isopropylamino)-2-oxopyrazin-1 (2H)-yl]acetamide trifluoroacetate]: the pIC50 in experiment [1] is > 7.00; in experiment [3], < 4.52; in experiment [4], < 4.52. Also, the “PT (Prothrombin time) 2xPT” value in experiment [2] is <50.0 µM.

As for `CC(C)Nc1ncc(-c2cc(N)cc(NC(=O)C3CC3)c2)n(CC(=O)NCc2ccc(C(=N)N)cc2)c1=O.O=C(O)C(F)(F)F.O=C(O)C(F)(F)F` [Example 144], the pIC50 is > 7.00 in experiment [1], < 4.52 in experiment [3] and < 4.52 in experiment [4]. In addition, in experiment [2], the “PT (Prothrombin time) 2xPT” value is <50.0 µM.

As for `COC(=O)[C@H](NC(=O)c1cc(N)cc(-c2cnc(NC(C)C)c(=O)n2CC(=O)NCc2ccc(C(=N)N)cc2)c1)c1ccccc1` [Example 86], the pIC50 in experiment [1] was > 7.00; in experiment [3], < 4.52; in experiment [4] it was > 4.52. For the same molecule, the “PT (Prothrombin time) 2xPT” value in experiment [2] was <50.0 µM.

For the molecule `CC(=O)Oc1cc(N)cc(-c2cnc(NC(C)C)c(=O)n2CC(=O)NCc2ccc(C(=N)N)cc2)c1.O=C(O)C(F)(F)F` [Example 175], the pIC50 was > 7.00 in experiment [1], < 4.52 in experiment [3] and < 4.52 in experiment [4]. The “PT (Prothrombin time) 2xPT” value in experiment [2] is <50.0 µM.

Take `CC(C)Nc1ncc(-c2cc(N)cc(C(=O)NCc3ccc(C(=O)O)cc3)c2)n(CC(=O)NCc2ccc(C(=N)N)cc2)c1=O.O=C(O)C(F)(F)F.O=C(O)C(F)(F)F` [Example 171]: the figures for the pIC50 in experiment [1], in experiment [3] and in experiment [4] were > 7.00, < 4.52 and < 4.52, respectively. In experiment [2], the “PT (Prothrombin time) 2xPT” value is <50.0 µM.

Turning to `CCC(C)NC(=O)c1cc(N)cc(-c2cnc(NC(C)C)c(=O)n2CC(=O)NCc2ccc(C(=N)N)cc2)c1.O=C(O)C(F)(F)F.O=C(O)C(F)(F)F` (stereo not drawn) [Example 7], the pIC50 in experiment [1] is > 7.00; in experiment [3], < 4.52; in experiment [4] it was > 4.52. For the same molecule, in experiment [2], the “PT (Prothrombin time) 2xPT” value is <50.0 µM.

As for `CC(C)Nc1ncc(-c2cc(N)cc(C(F)(F)F)c2)n(CC(=O)NCc2ccc(C(=N)N)c(F)c2F)c1=O` [Example 51], the pIC50 in experiment [1] was < 7.00; in experiment [3], < 4.52; in experiment [4], < 4.52. Besides, in experiment [2], the “PT (Prothrombin time) 2xPT” value was <50.0 µM.

In the case of `COc1ccc(S(=O)(=O)Nc2cc(N)cc(-c3cnc(NC(C)C)c(=O)n3CC(=O)NCc3ccc(C(=N)N)cc3)c2)cc1` [Example 92], the figures for the pIC50 in experiment [1], in experiment [3] and in experiment [4] were > 7.00, < 4.52 and < 4.52, respectively. Also, in experiment [2], the “PT (Prothrombin time) 2xPT” value was <50.0 µM.

In the case of `CC(C)Nc1ncc(-c2cc(N)cc(C(=O)NCc3ccccc3)c2)n(CC(=O)NCc2ccc(C(=N)N)c(O)c2)c1=O.O=C(O)C(F)(F)F` [Example 161, 3-amino-5-[1-[2-({4-[amino(imino)methyl]-3-hydroxybenzyl}amino)-2-oxoethyl]-5-(isopropylamino)-6-oxo-1,6-dihydropyrazin-2-yl]-N-benzylbenzamide], the pIC50 is > 7.00 in experiment [1], < 4.52 in experiment [3] and < 4.52 in experiment [4]. For the same molecule, the “PT (Prothrombin time) 2xPT” value in experiment [2] is <50.0 µM.

As to `N=C(N)c1ccc(CNC(=O)Cn2c(-c3cc(N)cc(O)c3)cnc(NC3CC3)c2=O)cc1.O=C(O)C(F)(F)F.O=C(O)C(F)(F)F` [Example 179], the pIC50 in experiment [1] was > 7.00; in experiment [3] it was < 4.52; in experiment [4], < 4.52. Further, in experiment [2], the “PT (Prothrombin time) 2xPT” value was <50.0 µM.

Turning to `CC(C)Nc1ncc(-c2cc(N)cc(C(=O)N[C@H](C(=O)O)c3ccccc3)c2)n(CC(=O)NCc2ccc(C(=N)N)cc2)c1=O` [Example 84], the values for the pIC50 in experiment [1], in experiment [3] and in experiment [4] were > 7.00, < 4.52 and < 4.52, respectively. The “PT (Prothrombin time) 2xPT” value in experiment [2] was <50.0 µM.

As for `COc1ccc(CNC(=O)c2cc(N)cc(-c3cnc(NC(C)C)c(=O)n3CC(=O)NCc3ccc(C(=N)N)cc3)c2)cc1.O=C(O)C(F)(F)F.O=C(O)C(F)(F)F` [Example 174], the values for the pIC50 in experiment [1], in experiment [3] and in experiment [4] were > 7.00, < 4.52 and < 4.52, respectively. For the same molecule, the “PT (Prothrombin time) 2xPT” value in experiment [2] is <50.0 µM.

With `CC(C)CCNC(=O)c1cc(N)cc(-c2cnc(NC(C)C)c(=O)n2CC(=O)NCc2ccc(C(=N)N)cc2)c1.O=C(O)C(F)(F)F.O=C(O)C(F)(F)F` [Example 6], the pIC50 in experiment [1] was > 7.00; in experiment [3], < 4.52; in experiment [4] it was < 4.52. The “PT (Prothrombin time) 2xPT” value in experiment [2] is <50.0 µM.

In the case of `CC(C)Nc1ncc(-c2cc(N)cc(N)c2)n(CC(=O)NCc2ccc(C(=N)N)s2)c1=O` [Example 68], the values for the pIC50 in experiment [1], in experiment [3] and in experiment [4] were > 7.00, > 4.52 and < 4.52, respectively. Further, the “PT (Prothrombin time) 2xPT” value in experiment [2] is <50.0 µM.

Regarding `CC(CC(=O)Nc1cc(N)cc(-c2cnc(NC(C)C)c(=O)n2CC(=O)NCc2ccc(C(=N)N)cc2)c1)CC(C)(C)C.O=C(O)C(F)(F)F.O=C(O)C(F)(F)F` (stereo not drawn) [Example 139], the values for the pIC50 in experiment [1], in experiment [3] and in experiment [4] were > 7.00, < 4.52 and > 4.52, respectively. The “PT (Prothrombin time) 2xPT” value in experiment [2] was <50.0 µM.

`CC(C)CCOc1cc(N)cc(-c2cnc(NC(C)C)c(=O)n2CC(=O)NCc2ccc(C(=N)N)cc2)c1.O=C(O)C(F)(F)F.O=C(O)C(F)(F)F` [Example 214]: the figures for the pIC50 in experiment [1], in experiment [3] and in experiment [4] were > 7.00, < 4.52 and < 4.52, respectively. In experiment [2], the “PT (Prothrombin time) 2xPT” value was <50.0 µM.

For the molecule `CC(C)Nc1ncc(-c2cc(N)cc(C(F)(F)F)c2)n(CC(=O)NCc2cc(O)c(C(=N)N)c(F)c2)c1=O.O=C(O)C(F)(F)F` [Example 116], the results for the pIC50 in experiment [1], in experiment [3] and in experiment [4] were < 7.00, > 4.52 and < 4.52, respectively. Further, in experiment [2], the “PT (Prothrombin time) 2xPT” value was <50.0 µM.
